From EP1350507A1, “Delivery of a substance to a pre-determinated site” (Applied NanoSystems B.V., priority 2002, dated 2003)
One block for each compound: values may come before it.

Legend:
[1] = Gelation experiment with dithienylcyclopentene derivatives (heat, cool, no gravitational flow; UV-vis/CD); format: physicochemical; conditions: for Solvents in which gelation did occur: cooling to room temperature, 1 ml solvent
Procedure: In a typical gelation experiment, a carefully weighed amount of the dithienylcyclopentene derivative under investigation and 1 ml of the solvent are placed in a test tube, which is sealed and then heated until the compound is dissolved. The solution is allowed to cool to room temperature. […] The gelation process could be followed by UV-vis and CD spectroscopy as depicted in Figure 23. […] Increasing the concentration to 1.8 mM causes gelation of the solvent, which is accompanied by a change of the UV-visible spectrum, together with the appearance of a strong CD signal at 323 nm (Figure 22 A and B). Similar changes in the UV-vis and CD spectrum are observed upon gelation of the 1.8 mM solution of D in toluene by cooling to a temperature below the sol-gel phase transition(from here on referred to as gel(o). From a plot of the increase of the CD signal versus the temperature the sol-gel phase transition temperature of gel(o) was determined to be 29°C for a 1.8 mM solution of D in toluene.

[2] = Photoswitching of a gel of compound D; format: physicochemical
Procedure: In a typical photoswitching experiment a solution (1.8 mM) of Compound D in toluene was prepared by cooling from 70°C to the desired temperature (typically between 30°C and 60°C, i.e. above the gel-sol phase transition temperature of the open form of D) in a cuvette of 1 mm path length. This solution was then irradiated at λ1 = 313 nm to convert the ring-open form of Compound D to the ring-closed form. By using a 150 W Xe lamp and a 313 nm bandpass filter, the photostationary state (PSS) was reached typically within 10 minutes, which consist of 60mol% of the closed form and 40mol% of the open form.
Gels of the closed form of D can also be dissolved by converting the closed form to the open form by irradiation with light of wavelength □□. Irradiation of gel(c,I) or gel(c,II) with □□ > 450 nm at while keeping the temperature between 30°C and 60°C causes dissolution of the gel to give a solution of the open form D, of which the UV-vis and CD spectra are identical to that of the starting solution. This process of gelation-dissolution by alternating irradiations with UV (313 nm) and Vis (> 450 nm) light can be repeated many times, showing that the photo-induced gelation process is fully reversible. In another experiment a solution (1.8 mM) of Compound D in toluene was prepared by cooling from 70°C to a temperature below the gel-sol phase transition temperature of the open form of (typically between 20°C and 29°C) in a cuvette of 1 mm path length.

[3] = Solvent scope of N,N'-dialkylaldaramides or N,N'-dialkylpentaramides (gelation behaviour in solvents); format: physicochemical
Source text: It will be understood that the use of the present gelling agents or thickeners to prepare a gel or to thicken a composition is also encompassed by the invention. As is well-known, gelling behavior of compounds or compositions is highly unpredictable. […] Preferably, the gelling phenomenon is thermoreversible.
(§1) Preferred examples include aromatic and non-aromatic hydrocarbons, alcohols, ethers, esters, aldehydes, alkanoic acids, epoxides, amines, halogenated hydrocarbons, silicon oils, vegetable oils, phosphoric esters, sulfoxides and mixtures thereof. The compound also produces a gel in hydrophilic solvents such as water. The choice of composition for gelling can be tuned to the invented use. For instance in situations where clinical application of a vehicle of the invention is intended biocompatibility of the composition is preferred. In order to obtain a gel, the gelling agent or thickener is preferably mixed with the composition to be transformed to a gel in an amount of between 0.01 and 50 wt.%, based on the weight of the composition. In a preferred embodiment the mixture of the gelling agent or thickener and the composition is heated to allow for an even better gel formation or thickening. Typically, the heating will involve raising the temperature of the mixture to about 30 - 175 °C until a clear solution is obtained. In an alternative embodiment, the gelling agent is first dissolved in a polar or apolar solvent and then added to or sprayed into a composition or solvent to be converted into a gel.

[4] = Concentration range of N,N'-dialkylaldaramides or N,N'-dialkylpentaramides in solvents; format: physicochemical
Source text: as §1

COS-7 cells [5] = assay: Transfection of COS-7 cells with β-galactosidase reporter plasmid; format: cell-based
Procedure: Transfections are carried out following standard protocols as is described in EP 0755924. In numerous publications variations of transfection protocols are given. A person acquainted with the field of non-viral transfections, in particular transfections using cationic amphiphiles will be able to use the cationic amphiphiles of the invention in transfection methods known per se. In standard experiments COS-7 cells are transfected with plasmid DNA containing the β-galactosidase reporter gene. Upon successful transfection the cell produces the enzyme β-galactosidase whose activity can be easily measured. […] Toxicity of the cationic amphiphiles towards the cells can be monitored qualitatively and quantitatively by visual inspection of the cells and by a protein determination.
[…] The plasmid concentration was determined by measuring the absoption at 260 nm using the relation 1.0 OD = 50 µg/ml. […]
The complex of cationic amphiphile/DOPE (1:1) with pCMV β-gal was prepared at the charge ratio 2.5:1 (15 nmol lipid and 1 µg DNA), in 100µl 10 mM HEPES (pH=7.4, 150 mM NaCl). […] Control wells underwent identical steps except that no cationic amphiphile was added. β-galactosidase activity was observed whereas in control wells no activity was detected. […]

COS-7 cells [6] = assay: Toxicity of cationic amphiphile towards the cells (protein determination); format: cell-based; conditions: protein determination compared with control wells
Procedure: Transfections are carried out following standard protocols as is described in EP 0755924. In numerous publications variations of transfection protocols are given. A person acquainted with the field of non-viral transfections, in particular transfections using cationic amphiphiles will be able to use the cationic amphiphiles of the invention in transfection methods known per se. In standard experiments COS-7 cells are transfected with plasmid DNA containing the β-galactosidase reporter gene. Upon successful transfection the cell produces the enzyme β-galactosidase whose activity can be easily measured. Other plasmids comprising alternative reporter genes such as the gene encoding Green Fluoerscent Protein or Chloroamphenicol Acetyl Transferase are suited as well. For analyzing stable transfection a plasmid containing the neomycin resistance gene can be used. Toxicity of the cationic amphiphiles towards the cells can be monitored qualitatively and quantitatively by visual inspection of the cells and by a protein determination.
The complex of cationic amphiphile/DOPE (1:1) with pCMV β-gal was prepared at the charge ratio 2.5:1 (15 nmol lipid and 1 µg DNA), in 100µl 10 mM HEPES (pH=7.4, 150 mM NaCl). […] Control wells underwent identical steps except that no cationic amphiphile was added. β-galactosidase activity was observed whereas in control wells no activity was detected.

[7] = 1.8 mM in toluene, irradiation at 313 nm

Compound: Cc1sc(C(=O)N[C@H](C)C2CCCCC2)cc1C1=C(c2cc(C(=O)N[C@H](C)C3CCCCC3)sc2C)CCC1 [Compound E, 1,2-Bis(2'-methyl-5'-{[((R)-1-cyclohexylethyl)amino]carbonyl}thien-3'-yl)cyclopentene]
Solvents in which gelation did occur [1]: hexadecane, cyclohexane, 1-phenyloctane, toluene, n-butylether, benzene, tetralin, 1,4-dioxane, and n-butyl acetate

Compound: 1-(9'-cis-octadecenyl)-4-(10"-cis-nonadecenyl) pyridinium Chloride
β-galactosidase activity (COS-7 cells [5]; cationic amphiphile/DOPE (1:1) with pCMV β-gal, charge ratio 2.5:1, assay 48 later): observed
β-galactosidase activity compared with Lipofectin™ (COS-7 cells [5]; cationic amphiphile/DOPE (1:1), charge ratio 2.5:1): substantially higher
toxicity towards the cells (COS-7 cells [6]): no toxicity

Compound: Cc1sc(C(=O)Nc2ccccc2)cc1C1=C(c2cc(C(=O)Nc3ccccc3)sc2C)CCC1 [Compound C, 1,2-Bis(5'-(anilinocarbonyl)-2'-methyl-thien-3'-yl) cyclopentene]
Solvents in which gelation did occur [1]: 1-phenyloctane, toluene, n-butylether, benzene, tetralin

Compound: O=C(NC1CCCCCCCCCCC1)[C@@H](O)[C@@H](O)[C@H](O)[C@@H](O)C(=O)NC1CCCCCCCCCCC1 [Compound C12GluC12, dicyclododecyl glucaramide]
Concentration range ([4]; 1,2- Dichloroethane): <50%.
Concentration range ([4]; Cyclohexane): <5%.
Concentration range ([4]; Dow Corning 702): <50%
Concentration range ([4]; Methyllaurate): <5%.
Concentration range ([4]; Toluene): <50%.
Concentration range ([4]; n-Butylacetate): <50%.
Solvent scope ([3]; Dimethylsulfoxide): g/c.
Solvent scope ([3]; Ethanol): g/c.
Solvent scope ([3]; water): n.s.

Now from value to compound, other results behind:

sol-gel phase transition temperature of gel(o) ([1]; 1.8 mM solution in toluene, open form, from CD signal versus temperature): 29 °C
Concentration that causes gelation of the solvent ([1]; Toluene): 1800 µM
sol-gel phase transition temperature of gel(c,I) ([2]; 1.8 mM in toluene after irradiation at 313 nm): 62 °C
Time without gel formation, solutions kept in the dark ([2]; 1.8 mM in toluene, between 20°C and 29°C, not irradiated): > 1 h
closed form in the photostationary state (PSS) [2, 7]: 60 mol%
open form in the photostationary state (PSS) [2, 7]: 40 mol%
Time to reach the photostationary state (PSS) ([2]; 1.8 mM in toluene, irradiation at 313 nm, 150 W Xe lamp): ≤ 10 min
Increase of thermal stability compared to gel(o) ([2]; gel(c,I), toluene): more than 30 °C
Compound: Cc1sc(C(=O)N[C@H](C)c2ccccc2)cc1C1=C(c2cc(C(=O)N[C@H](C)c3ccccc3)sc2C)CCC1 [Compound D, 1,2-Bis(2'-methyl-5'-{[((R)-1-phenylethyl)amino]carbonyl}thien-3'-yl)cyclopentene]
Solvents in which gelation did occur [1]: cyclohexane, 1-phenyloctane, toluene, n-butyl ether, benzene, tetralin

Solvent scope ([3]; 1,2-Dichloro-ethane): n.s.
Solvent scope ([3]; Cyclohexane): n.s.
Solvent scope ([3]; Ethanol): n.s.
Solvent scope ([3]; Toluene): n.s.
Solvent scope ([3]; n-Butylacetate): n.s.
Solvent scope ([3]; water): n.s.
Compound: CCCCCCCCCCCCNC(=O)[C@@H](O)[C@H](O)[C@H](O)[C@@H](O)C(=O)NCCCCCCCCCCCC [Compound 12Gal12, didodecyl galactaramide]

Solvent scope ([3]; Cyclohexane): g. ,c*.
Compound: CC(C)=CCCC(C)CCNC(=O)[C@@H](O)[C@@H](O)[C@H](O)[C@@H](O)C(=O)NCCC(C)CCC=C(C)C (stereo partly shown) [CitGluCit, dicitronellyl glucaramide]

Concentration range ([4]; 1,2- Dichloroethane): <5.0%.
Concentration range ([4]; Cyclohexane): <2.5%.
Concentration range ([4]; Dow Corning 702): <2.5%.
Concentration range ([4]; Methyllaurate): <2.5%.
Concentration range ([4]; Toluene): <2.5%.
Concentration range ([4]; n-Butylacetate): <2.5%.
Solvent scope ([3]; 1,2-Dichloro-ethane): g/c.
Solvent scope ([3]; Dimethylsulfoxide): g/c.
Solvent scope ([3]; Ethanol): g/c.
Solvent scope ([3]; water): n.s.
Compound: O=C(NC1CCCCC1)[C@@H](O)[C@@H](O)[C@H](O)[C@@H](O)C(=O)NC1CCCCC1 [Compound C6GluC6, dicyclohexyl glucaramide]
